Data from ChEMBL document CHEMBL1201862, “PubChem BioAssay data set” (2004).
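Grown in 96-well plates, cells were treated for 48 hours with each compound at five concentrations. Insufficient inhibition: endpoint recorded as highest concentration tested. GI50: concentration for 50% inhibition of growth.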 The source made the active and inactive calls. No stated cut-off is given here; in the data, active = GI50 up to about 1.1 µM and inactive = higher.

Legend:
Assay in all cases: growth of human tumour cells (NCI), 48 h
HCC 2998 = system: HCC 2998
U-251 = system: U-251
KM-20L2 = system: KM-20L2
OVCAR-3 = system: OVCAR-3
SF-268 = system: SF-268
M19-MEL = system: M19-MEL
Malme-3M = system: Malme-3M
A498 = system: A498
NCI-H23 = system: NCI-H23
UO-31 = system: UO-31
SK-MEL-2 = system: SK-MEL-2
SF-539 = system: SF-539
A549 = system: A549
SF-295 = system: SF-295
SK-MEL-28 = system: SK-MEL-28
IGROV-1 = system: IGROV-1
NCI-H522 = system: NCI-H522
SNB-75 = system: SNB-75
EKVX = system: EKVX
HL-60 = system: HL-60
SNB-78 = system: SNB-78
CAKI-1 = system: CAKI-1
SK-OV-3 = system: SK-OV-3
HOP-62 = system: HOP-62
K562 = system: K562
NCI-H226 = system: NCI-H226
DLD-1 = system: DLD-1
RXF 393 = system: RXF 393
SK-MEL-5 = system: SK-MEL-5
MOLT-4 = system: MOLT-4
OVCAR-5 = system: OVCAR-5
HCT-15 = system: HCT-15
CCRF-CEM = system: CCRF-CEM
SNB-19 = system: SNB-19
HCT-116 = system: HCT-116
DMS-273 = system: DMS-273
MCF7 = system: MCF7
HOP-92 = system: HOP-92
NCI/ADR-RES = system: NCI/ADR-RES
HOP-18 = system: HOP-18
RPMI-8226 = system: RPMI-8226
LOX IMVI = system: LOX IMVI
SW-620 = system: SW-620
OVCAR-8 = system: OVCAR-8
UACC-257 = system: UACC-257
SN12C = system: SN12C
NCI-H460 = system: NCI-H460
OVCAR-4 = system: OVCAR-4
COLO 205 = system: COLO 205
DMS-114 = system: DMS-114
HT-29 = system: HT-29
UACC-62 = system: UACC-62
KM12 = system: KM12

Measured: GI50

O=NN1C(c2ccccc2)CNC(=O)CC1c1ccccc1 (stereo not drawn)
inactive: HCC 2998 27.3 µM | U-251 55.3 µM | KM-20L2 25.3 µM | OVCAR-3 22.8 µM | SF-268 78.5 µM | M19-MEL 50.1 µM | Malme-3M 50.9 µM | A498 35.6 µM | NCI-H23 33.1 µM | UO-31 36.3 µM | SK-MEL-2 33.7 µM | SF-539 35.4 µM | A549 44.5 µM | SF-295 32.7 µM | SK-MEL-28 57.3 µM | IGROV-1 63.5 µM | NCI-H522 20.3 µM | SNB-75 20.8 µM | EKVX 35.4 µM | HL-60 21.9 µM | SNB-78 > 91.4 µM | CAKI-1 59.6 µM | SK-OV-3 42 µM | HOP-62 37.6 µM | K562 22.6 µM | NCI-H226 68.5 µM | DLD-1 44.2 µM | RXF 393 22.2 µM | SK-MEL-5 25.3 µM | MOLT-4 52.7 µM | OVCAR-5 > 100 µM | CCRF-CEM 35.3 µM | SNB-19 48.5 µM | HCT-116 38.5 µM | DMS-273 27.4 µM | MCF7 24.9 µM | HOP-92 42.8 µM | NCI/ADR-RES 28.7 µM | HOP-18 > 100 µM | RPMI-8226 34 µM | LOX IMVI 46.7 µM | SW-620 38.1 µM | OVCAR-8 65.5 µM | UACC-257 36.4 µM | SN12C 53 µM | NCI-H460 36.2 µM | OVCAR-4 52.8 µM | COLO 205 25.8 µM | DMS-114 22.7 µM | HT-29 28.6 µM | UACC-62 44.4 µM | KM12 42.9 µM
36 µM: HCT-15
